Measured values reported in paper PMC3169401, “Structure of fructose bisphosphate aldolase from Bartonella henselae bound to fructose 1,6-bisphosphate” (Acta Crystallographica Section F: Structural Biology and …, 2011).

Key:
[1] = biological target: T1, BhFBPA (Bartonella henselae fructose bisphosphate aldolase) (Bartonella henselae, UniProt Q8L207); assay: X-ray crystal structure of the complex ([…] A, cocrystallization); type: binding; settings: covalent; Schiff base of C2 of linear FBP with Lys223 at the active site; 10 mM FBP, pH 8.5, 290 K
T1 construct: gene fbab; full length, 343 residues; E. coli BL21(DE3) R3 Rosetta; 39495 Da; homotetramer; residues 1-340 modelled
T1 sequence (Q8L207 1-343): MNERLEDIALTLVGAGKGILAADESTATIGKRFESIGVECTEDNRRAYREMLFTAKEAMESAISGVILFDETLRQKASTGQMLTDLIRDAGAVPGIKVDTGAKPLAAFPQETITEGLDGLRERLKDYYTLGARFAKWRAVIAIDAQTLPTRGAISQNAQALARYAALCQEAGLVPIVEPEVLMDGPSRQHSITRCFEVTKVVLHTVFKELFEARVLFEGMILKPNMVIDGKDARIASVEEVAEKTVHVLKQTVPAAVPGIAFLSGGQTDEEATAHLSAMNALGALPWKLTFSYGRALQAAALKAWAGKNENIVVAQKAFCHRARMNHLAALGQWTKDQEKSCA

[2] = biological target: Bartonella henselae fructose bisphosphate aldolase (Bartonella henselae); assay: crystal structure; cocrystallised with 10 mM fructose 1,6-bisphosphate, vapor diffusion at 290 K, 0.2 M sodium acetate, 0.1 M Tris pH 8.5, 30% PEG 4000; four monomers in the asymmetric unit; 2.35 A

Row | stoichiometry N [2] | Compound | X-ray crystal structure of the complex (2.35 A, cocrystallization) [1]
1 | – | O=P(O)(O)OC[C@H]1OC(O)(COP(=O)(O)O)[C@@H](O)[C@@H]1O (some centres unmarked) [fructose 1,6-bisphosphate] | This structure has clear electron density for FBP bound at the active site
2 | 4 | Bartonella henselae fructose bisphosphate aldolase (enzyme) | –
